Measured values published in ChEMBL document CHEMBL1201861, “Genomics of Drug Sensitity in Cancer screening data, Wellcome Trust Sanger Institute”.

What was measured:
Test in all cases: cells
Details in all cases: Homo sapiens
MC116 = type: functional, cell-based;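 note: growth inhibition of MC116 cells, read out with a cell viability assay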
Description: SANGER: Inhibition of human MC116 cell growth in a cell viability assay.

A704 = type: functional, cell-based;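 note: growth inhibition of human A704 cells, read out with a cell viability assay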
Description: SANGER: Inhibition of human A704 cell growth in a cell viability assay.

NTERA-2-cl-D1 = type: functional, cell-based;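 note: inhibition of cell growth, measured with a cell viability assay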
Description: SANGER: Inhibition of human NTERA-S-cl-D1 cell growth in a cell viability assay.

Calu-6 = type: functional, cell-based;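 note: growth of human Calu-6 cells, read out by a cell viability assay, IC50 marking inhibition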
Description: SANGER: Inhibition of human Calu-6 cell growth in a cell viability assay.

KNS-42 = type: functional, cell-based;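 note: growth inhibition of KNS-42 cells, read out with a cell viability assay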
Description: SANGER: Inhibition of human KNS-42 cell growth in a cell viability assay.

EOL1 = type: functional, cell-based;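 note: growth inhibition of EoL-1 cells, read out by a cell viability assay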
Description: SANGER: Inhibition of human EoL-1-cell cell growth in a cell viability assay.

Ramos-2G6-4C10 = type: functional, cell-based;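 note: growth inhibition of the cell line, measured by a cell viability read-out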
Description: SANGER: Inhibition of human Ramos-2G6-4C10 cell growth in a cell viability assay.

LS-513 = type: functional, cell-based
Description: SANGER: Inhibition of human LS-513 cell growth in a cell viability assay.

TK-10 = type: functional, cell-based;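 note: growth inhibition of TK-10 cells, read out in a cell viability assay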
Description: SANGER: Inhibition of human TK10 cell growth in a cell viability assay.

LB831-BLC = type: functional, cell-based;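 note: growth inhibition of LB831-BLC cells, read out with a cell viability assay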
Description: SANGER: Inhibition of human LB831-BLC cell growth in a cell viability assay.

MN-60 = type: functional, cell-based;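 note: growth inhibition of the MN-60 cell line, determined with a cell viability assay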
Description: SANGER: Inhibition of human MN-60 cell growth in a cell viability assay.

HCC2218 = type: functional, cell-based;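 note: cell viability assay read-out, with IC50 given as the concentration that inhibits growth of the cell line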
Description: SANGER: Inhibition of human HCC2218 cell growth in a cell viability assay.

NCI-H69 = type: functional, cell-based;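 note: growth inhibition of the cell line, read out with a cell viability assay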
Description: SANGER: Inhibition of human NCI-H69 cell growth in a cell viability assay.

SK-PN-DW = type: functional, cell-based;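 note: growth inhibition measured with a viability assay on these cells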
Description: SANGER: Inhibition of human SK-PN-DW cell growth in a cell viability assay.

KU812 cell line = type: functional, cell-based;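 note: growth inhibition of KU812 cells, read out with a cell viability assay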
Description: SANGER: Inhibition of human KU812 cell growth in a cell viability assay.

KMOE-2 = type: functional, cell-based;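 note: growth inhibition of human KMOE-2 cells, read out with a cell viability assay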
Description: SANGER: Inhibition of human KMOE-2 cell growth in a cell viability assay.

SNU-C2B = type: functional, cell-based;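 note: cell viability readout used to measure compound-driven suppression of SNU-C2B cell proliferation, IC50 marking half-maximal growth inhibition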
Description: SANGER: Inhibition of human SNU-C2B cell growth in a cell viability assay.

SW 954 = type: functional, cell-based;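 note: growth inhibition of SW954 human cancer cells, read out as cell viability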
Description: SANGER: Inhibition of human SW954 cell growth in a cell viability assay.

SK-MEL-2 = type: functional, cell-based;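 note: growth inhibition of human SK-MEL-2 cells measured with a cell viability assay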
Description: SANGER: Inhibition of human SK-MEL-2 cell growth in a cell viability assay.

RXF 393 = type: functional, cell-based;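 note: growth inhibition of human RXF 393 cells, read out with a cell viability assay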
Description: SANGER: Inhibition of human RXF393 cell growth in a cell viability assay.

MZ1-PC = type: functional, cell-based;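 note: cell viability assay measuring growth inhibition of human MZ1-PC cells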
Description: SANGER: Inhibition of human MZ1-PC cell growth in a cell viability assay.

NCI-H1355 = type: functional, cell-based;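 note: growth inhibition of human NCI-H1355 cells, read out by a cell viability assay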
Description: SANGER: Inhibition of human NCI-H1355 cell growth in a cell viability assay.

SCH = type: functional, cell-based;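 note: growth inhibition of human SCH cells, read out in a cell viability assay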
Description: SANGER: Inhibition of human SCH cell growth in a cell viability assay.

no-11 = type: functional, cell-based;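 note: growth inhibition of human NO-11 cells, read out with a cell viability assay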
Description: SANGER: Inhibition of human no-11 cell growth in a cell viability assay.

LU-134-A = type: functional, cell-based
Description: SANGER: Inhibition of human LU-134-A cell growth in a cell viability assay.

LOX IMVI = type: functional, cell-based
Description: SANGER: Inhibition of human LOXIMVI cell growth in a cell viability assay.

GI-1 = type: functional, cell-based
Description: SANGER: Inhibition of human GI-1 cell growth in a cell viability assay.

ES1 = type: functional, cell-based;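 note: growth inhibition of ES1 cells, read out with a cell viability assay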
Description: SANGER: Inhibition of human ES1 cell growth in a cell viability assay.

OMC-1 = type: functional, cell-based;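 note: growth inhibition of the OMC-1 cell line, measured by a cell viability assay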
Description: SANGER: Inhibition of human OMC-1 cell growth in a cell viability assay.

DMS-79 = type: functional, cell-based;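 note: growth inhibition measured with a cell viability assay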
Description: SANGER: Inhibition of human DMS-79 cell growth in a cell viability assay.

KS-1 = type: functional, cell-based;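 note: growth inhibition of KS-1 cells, read out with a cell viability assay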
Description: SANGER: Inhibition of human KS-1 cell growth in a cell viability assay.

IST-SL1 = type: functional, cell-based;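 note: growth inhibition of human IST-SL1 cells, read out with a cell viability assay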
Description: SANGER: Inhibition of human IST-SL1 cell growth in a cell viability assay.

GAK = type: functional, cell-based;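 note: cell growth inhibition read out by a cell viability assay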
Description: SANGER: Inhibition of human GAK cell growth in a cell viability assay.

NCI-H1770 = type: functional, cell-based;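 note: growth inhibition of NCI-H1770 cells determined with a viability readout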
Description: SANGER: Inhibition of human NCI-H1770 cell growth in a cell viability assay.

KLE = type: functional, cell-based;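 note: growth inhibition of human KLE cells, read out with a cell viability assay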
Description: SANGER: Inhibition of human KLE cell growth in a cell viability assay.

SHP77 = type: functional, cell-based, SHP-77;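 note: growth inhibition of human SHP-77 cells measured by a cell viability assay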
Description: SANGER: Inhibition of human SHP-77 cell growth in a cell viability assay.

SH-4 = type: functional, cell-based;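 note: growth inhibition of SH-4 cells, read out with a cell viability assay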
Description: SANGER: Inhibition of human SH-4 cell growth in a cell viability assay.

NCI-H1838 = type: functional, cell-based;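 note: growth inhibition of NCI-H1838 cells, determined with a cell viability readout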
Description: SANGER: Inhibition of human NCI-H1838 cell growth in a cell viability assay.

KY821 = type: functional, cell-based;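 note: growth inhibition of human KY821 cells, read out by a cell viability assay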
Description: SANGER: Inhibition of human KY821 cell growth in a cell viability assay.

LAN-6 = type: functional, cell-based;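 note: growth inhibition of LAN-6 cells, determined with a cell viability assay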
Description: SANGER: Inhibition of human LAN-6 cell growth in a cell viability assay.

C8166 = type: functional, cell-based;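 note: growth inhibition of human C8166 cells measured by a cell viability assay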
Description: SANGER: Inhibition of human C8166 cell growth in a cell viability assay.

SBC-1 = type: functional, cell-based;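 note: cell viability assay measuring growth inhibition of the SBC-1 cell line, IC50 being the concentration that halves growth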
Description: SANGER: Inhibition of human SBC-1 cell growth in a cell viability assay.

ES5 = type: functional, cell-based;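 note: growth inhibition of human ES5 cells, read out by a cell viability assay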
Description: SANGER: Inhibition of human ES5 cell growth in a cell viability assay.

JVM-2 = type: functional, cell-based;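 note: growth inhibition of JVM-2 cells determined by a cell viability assay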
Description: SANGER: Inhibition of human JVM-2 cell growth in a cell viability assay.

RPMI-8226 = type: functional, cell-based
Description: SANGER: Inhibition of human RPMI-8226 cell growth in a cell viability assay.

EC-GI-10 = type: functional, cell-based
Description: SANGER: Inhibition of human EC-GI-10 cell growth in a cell viability assay.

JAR = type: functional, cell-based;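 note: growth inhibition of human JAR cells determined with a cell viability assay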
Description: SANGER: Inhibition of human JAR cell growth in a cell viability assay.

NCI-H1648 = type: functional, cell-based;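 note: cell viability assay measuring inhibition of NCI-H1648 cell growth, from the Sanger screening data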
Description: SANGER: Inhibition of human NCI-H1648 cell growth in a cell viability assay.

MHH-PREB-1 = type: functional, cell-based;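 note: cell viability assay measuring inhibition of proliferation of human MHH-PREB-1 cells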
Description: SANGER: Inhibition of human MHH-PREB-1 cell growth in a cell viability assay.

KARPAS-299 = type: functional, cell-based
Description: SANGER: Inhibition of human KARPAS-299 cell growth in a cell viability assay.

NCI-H1155 = type: functional, cell-based;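 note: cell growth inhibition measured by a viability assay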
Description: SANGER: Inhibition of human NCI-H1155 cell growth in a cell viability assay.

LB1047-RCC = type: functional, cell-based;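 note: inhibition of cell growth, determined with a cell viability assay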
Description: SANGER: Inhibition of human LB1047-RCC cell growth in a cell viability assay.

SNU1 = type: functional, cell-based;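 note: growth inhibition of human NCI-SNU-1 cells, measured with a cell viability assay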
Description: SANGER: Inhibition of human NCI-SNU-1 cell growth in a cell viability assay.

ETK-1 = type: functional, cell-based;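 note: growth inhibition of human ETK-1 cells, read out with a cell viability assay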
Description: SANGER: Inhibition of human ETK-1 cell growth in a cell viability assay.

OCUB-M = type: functional, cell-based;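 note: growth inhibition of the cancer cell line, read out through a cell viability assay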
Description: SANGER: Inhibition of human OCUB-M cell growth in a cell viability assay.

J-RT3-T3-5 = type: functional, cell-based
Description: SANGER: Inhibition of human J-RT3-T3-5 cell growth in a cell viability assay.

HL-60 = type: functional, cell-based
Description: SANGER: Inhibition of human HL-60 cell growth in a cell viability assay.

GR-ST = type: functional, cell-based
Description: SANGER: Inhibition of human GR-ST cell growth in a cell viability assay.

HDLM-2 = type: functional, cell-based
Description: SANGER: Inhibition of human HDLM-2 cell growth in a cell viability assay.

GB-1 = type: functional, cell-based
Description: SANGER: Inhibition of human GB-1 cell growth in a cell viability assay.

KG-1 = type: functional, cell-based
Description: SANGER: Inhibition of human KG-1 cell growth in a cell viability assay.

697 = type: functional, cell-based
Description: SANGER: Inhibition of human 697 cell growth in a cell viability assay.

NOMO-1 = type: functional, cell-based
Description: SANGER: Inhibition of human NOMO-1 cell growth in a cell viability assay.

MOLT-16 = type: functional, cell-based
Description: SANGER: Inhibition of human MOLT-16 cell growth in a cell viability assay.

GOTO = type: functional, cell-based
Description: SANGER: Inhibition of human GOTO cell growth in a cell viability assay.

ES8 = type: functional, cell-based
Description: SANGER: Inhibition of human ES8 cell growth in a cell viability assay.

C/C(O)=C(\C#N)C(=O)Nc1cc(Br)ccc1Br
IC50 (MC116): > 16000 nM
IC50 (A704): > 16000 nM
IC50 (NTERA-2-cl-D1): > 16000 nM
IC50 (Calu-6): > 16000 nM
IC50 (KNS-42): > 16000 nM
IC50 (EOL1): > 16000 nM
IC50 (Ramos-2G6-4C10): > 16000 nM
IC50 (LS-513): > 16000 nM
IC50 (TK-10): > 16000 nM
IC50 (LB831-BLC): > 16000 nM
IC50 (MN-60): > 16000 nM
IC50 (HCC2218): > 16000 nM
IC50 (NCI-H69): > 16000 nM
IC50 (SK-PN-DW): > 16000 nM
IC50 (KU812 cell line): > 16000 nM
IC50 (KMOE-2): > 16000 nM
IC50 (SNU-C2B): > 16000 nM
IC50 (SW 954): > 16000 nM
IC50 (SK-MEL-2): > 16000 nM
IC50 (RXF 393): > 16000 nM
IC50 (MZ1-PC): > 16000 nM
IC50 (NCI-H1355): > 16000 nM
IC50 (SCH): > 16000 nM
IC50 (no-11): > 16000 nM
IC50 (LU-134-A): > 16000 nM
IC50 (LOX IMVI): > 16000 nM
IC50 (GI-1): > 16000 nM
IC50 (ES1): > 16000 nM
IC50 (OMC-1): > 16000 nM
IC50 (DMS-79): > 16000 nM
IC50 (KS-1): > 16000 nM
IC50 (IST-SL1): > 16000 nM
IC50 (GAK): > 16000 nM
IC50 (NCI-H1770): > 16000 nM
IC50 (KLE): > 16000 nM
IC50 (SHP77): > 16000 nM
IC50 (SH-4): > 16000 nM
IC50 (NCI-H1838): > 16000 nM
IC50 (KY821): > 16000 nM
IC50 (LAN-6): > 16000 nM
IC50 (C8166): > 16000 nM
IC50 (SBC-1): > 16000 nM
IC50 (ES5): > 16000 nM
IC50 (JVM-2): > 16000 nM
IC50 (RPMI-8226): > 16000 nM
IC50 (EC-GI-10): > 16000 nM
IC50 (JAR): > 16000 nM
IC50 (NCI-H1648): > 16000 nM
IC50 (MHH-PREB-1): > 16000 nM
IC50 (KARPAS-299): > 16000 nM
IC50 (NCI-H1155): > 16000 nM
IC50 (LB1047-RCC): > 16000 nM
IC50 (SNU1): > 16000 nM
IC50 (ETK-1): > 16000 nM
IC50 (OCUB-M): > 16000 nM
IC50 (J-RT3-T3-5): > 16000 nM
IC50 (HL-60): > 16000 nM
IC50 (GR-ST): > 16000 nM
IC50 (HDLM-2): > 16000 nM
IC50 (GB-1): > 16000 nM
IC50 (KG-1): > 16000 nM
IC50 697: > 16000 nM
IC50 (NOMO-1): > 16000 nM
IC50 (MOLT-16): > 16000 nM
IC50 (GOTO): > 16000 nM
IC50 (ES8): > 16000 nM

O=c1[nH]c2ccccc2n1C1CCN(Cc2ccc(-c3nc4cc5[nH]cnc5cc4nc3-c3ccccc3)cc2)CC1
IC50 (MC116): > 2560 nM
IC50 (A704): > 2560 nM
IC50 (NTERA-2-cl-D1): > 2560 nM
IC50 (Calu-6): > 2560 nM
IC50 (KNS-42): > 2560 nM
IC50 (EOL1): > 2560 nM
IC50 (Ramos-2G6-4C10): > 2560 nM
IC50 (LS-513): > 2560 nM
IC50 (TK-10): > 2560 nM
IC50 (LB831-BLC): > 2560 nM
IC50 (MN-60): > 2560 nM
IC50 (HCC2218): > 2560 nM
IC50 (NCI-H69): > 2560 nM
IC50 (SK-PN-DW): > 2560 nM
IC50 (KU812 cell line): 1730 nM
IC50 (KMOE-2): > 2560 nM
IC50 (SNU-C2B): > 2560 nM
IC50 (SW 954): > 2560 nM
IC50 (SK-MEL-2): > 2560 nM
IC50 (RXF 393): > 2560 nM
IC50 (MZ1-PC): > 2560 nM
IC50 (NCI-H1355): > 2560 nM
IC50 (SCH): > 2560 nM
IC50 (no-11): > 2560 nM
IC50 (LU-134-A): > 2560 nM
IC50 (LOX IMVI): > 2560 nM
IC50 (GI-1): > 2560 nM
IC50 (ES1): > 2560 nM
IC50 (OMC-1): > 2560 nM
IC50 (DMS-79): > 2560 nM
IC50 (KS-1): > 2560 nM
IC50 (IST-SL1): > 2560 nM
IC50 (GAK): > 2560 nM
IC50 (NCI-H1770): > 2560 nM
IC50 (KLE): > 2560 nM
IC50 (SHP77): > 2560 nM
IC50 (SH-4): > 2560 nM
IC50 (NCI-H1838): > 2560 nM
IC50 (KY821): > 2560 nM
IC50 (LAN-6): > 2560 nM
IC50 (C8166): > 2560 nM
IC50 (SBC-1): > 2560 nM
IC50 (ES5): > 2560 nM
IC50 (JVM-2): > 2560 nM
IC50 (RPMI-8226): > 2560 nM
IC50 (EC-GI-10): > 2560 nM
IC50 (JAR): > 2560 nM
IC50 (NCI-H1648): > 2560 nM
IC50 (MHH-PREB-1): > 2560 nM
IC50 (KARPAS-299): > 2560 nM
IC50 (NCI-H1155): > 2560 nM
IC50 (LB1047-RCC): > 2560 nM
IC50 (SNU1): > 2560 nM
IC50 (ETK-1): > 2560 nM
IC50 (OCUB-M): > 2560 nM
IC50 (J-RT3-T3-5): > 2560 nM
IC50 (HL-60): > 2560 nM
IC50 (GR-ST): > 2560 nM
IC50 (HDLM-2): > 2560 nM
IC50 (GB-1): > 2560 nM
IC50 (KG-1): > 2560 nM
IC50 697: > 2560 nM
IC50 (NOMO-1): > 2560 nM
IC50 (MOLT-16): > 2560 nM
IC50 (GOTO): > 2560 nM
IC50 (ES8): > 2560 nM
